From US4764433A, “Agent for the protection of materials” (Bayer Aktiengesellschaft, priority 1985, dated 1988)
Values after ≈ are worked out from the molar mass of the structure shown.

Tests used:
Polyporus versicolor [1] = assay: Limiting toxic values (toxicity limits) on beechwood; conditions: 6 weeks at 21° to 23° C.; concentrations at which timber still attacked - no longer attacked
Experimental: (§1) Determination of the limiting toxic values (kg/m^3 of timber) of active compounds according to the invention for Coniophora puteana and Polyporus versicolor on pinewood and beechwood, respectively.
(§2) The limiting toxic values are determined by a method modelled on the method described by H. P. Sutter, Int. Biodeterioration Bulletin, 14 (3), 1978, pages 95 to 99.
(§3) For each test, freshly cut, thin pieces of cross-cut timber (dimensions 40×40 mm, thickness about 2 mm) are impregnated in vacuo with solutions of varying concentrations of active compounds. In each case one concentration of active compound is used to impregnate 15 timber samples simultaneously. 5 of these are in each case used at the same time for a mycological test.
(§4) The amount of active compound absorbed is determined from the retention of solvent (determined by weighing the small piece of timber before and after impregnation), the density of the timber and the concentration of the active compound in the residual impregnating solution.
(§5) Before the mycological test, the test specimens are sterilized with propylene oxide and in each case 1 test specimen is brought into contact in a Petri dish with the fully developed mycellium of the test fungus on malt extract agar. The toxicity limits are determined visually after 6 weeks at 21° to 23° C.
(§6) The toxicity limits ([…] of timber) for substances according to the invention are shown in the table below; the toxicity limits indicate the concentrations at which the timber is still attacked and at which the timber is no longer attacked.

slime organisms = assay: Action against slime organisms, MIC in Allen's nutrient solution; type: cell-based; conditions: 504 h, approx. 10^6 microbes/ml, 3 weeks at room temperature, read-out: MIC in mg/l when the substances act on slime organisms
Experimental: Substances according to the invention, dissolved in a little acetone, are used in concentrations of 0.1 to 100 mg/l in a particular case in Allen's nutrient solution (Arch. Mikrobiol., 17, 34 to 53 (1952)), containing, in 4 l of sterile water, 0.2 g of ammonium chloride, 4.0 g of sodium nitrate, 1.0 g of dipotassium hydrogen phosphate, 0.2 g of calcium chloride, 2.05 g of magnesium sulphate, 0.02 g of iron chloride and 1% of caprolactam. Shortly beforehand, the nutrient solution is infested with slime organisms (approx. 10^6 microbes/ml) which have been isolated from circulating spinning water used in the production of polyamide.

Coniophora puteana [2] = assay: Limiting toxic values (toxicity limits) on pinewood; conditions: 6 weeks at 21° to 23° C.; concentrations at which timber still attacked - no longer attacked
Experimental: as §1, §2, §3, §4, §5, §6

Aureobasidium pullulans = assay: MIC against fungi (agar, beer wort and peptone); type: cell-based; conditions: 336 h, 2 weeks at 28° C., 60 to 70% relative humidity, read-out: MIC values when substances according to the invention act on fungi
Experimental: (§7) Compounds according to the invention are added, in concentrations of 0.1 mg/l to 5,000 mg/l, to an agar prepared from beer wort and peptone.

Chaetomium globosum = assay: MIC against fungi (agar, beer wort and peptone); type: cell-based; conditions: 336 h, 2 weeks at 28° C., 60 to 70% relative humidity, read-out: MIC values when substances according to the invention act on fungi
Experimental: as §7

Coniophora puteana [3] = assay: MIC against fungi (agar, beer wort and peptone); type: cell-based; conditions: 336 h, 2 weeks at 28° C., 60 to 70% relative humidity, read-out: MIC values when substances according to the invention act on fungi
Experimental: as §7

Aspergillus niger = assay: MIC against fungi (agar, beer wort and peptone); type: cell-based; conditions: 336 h, 2 weeks at 28° C., 60 to 70% relative humidity, read-out: MIC values when substances according to the invention act on fungi
Experimental: as §7

Alternaria tenuis = assay: MIC against fungi (agar, beer wort and peptone); type: cell-based; conditions: Alternaria alternata, 336 h, 2 weeks at 28° C., 60 to 70% relative humidity, read-out: MIC values when substances according to the invention act on fungi
Experimental: as §7

Polyporus versicolor [4] = assay: MIC against fungi (agar, beer wort and peptone); type: cell-based; conditions: Trametes versicolor, 336 h, 2 weeks at 28° C., 60 to 70% relative humidity, read-out: MIC values when substances according to the invention act on fungi
Experimental: as §7

Penicillium glaucum = assay: MIC against fungi (agar, beer wort and peptone); type: cell-based; conditions: 336 h, 2 weeks at 28° C., 60 to 70% relative humidity, read-out: MIC values when substances according to the invention act on fungi
Experimental: as §7

Sclerophoma pityophila = assay: MIC against fungi (agar, beer wort and peptone); type: cell-based; conditions: Sydowia polyspora, 336 h, 2 weeks at 28° C., 60 to 70% relative humidity, read-out: MIC values when substances according to the invention act on fungi
Experimental: as §7

Lentinus tigrinus = assay: MIC against fungi (agar, beer wort and peptone); type: cell-based; conditions: 336 h, 2 weeks at 28° C., 60 to 70% relative humidity, read-out: MIC values when substances according to the invention act on fungi
Experimental: as §7

Phytophthora infestans = type: in vivo; conditions: for fungicidal properties for plant protection: phytophthora test [tomatoes], sulphamides compared with N-sulphenylated benzenesulphonamides according to the invention; for % attack at an active compound concentration of 10 ppm: tomato plants, protective
[5] = cited from earlier work

Compound | Toxicity Limits, Polyporus versicolor on beechwood (Polyporus versicolor [1]) | MIC (slime organisms) [mg/L] | Toxicity Limits, Coniophora puteana on pinewood (Coniophora puteana [2]) | MIC (Aureobasidium pullulans) [µg/mL] | MIC (Chaetomium globosum) [µg/mL] | MIC (Coniophora puteana [3]) [µg/mL] | MIC (Aspergillus niger) [µg/mL] | MIC (Alternaria tenuis) [µg/mL] | MIC (Polyporus versicolor [4]) [µg/mL] | MIC (Penicillium glaucum) [µg/mL] | MIC (Sclerophoma pityophila) [µg/mL] | MIC (Lentinus tigrinus) [µg/mL] | fungicidal properties for plant protection (Phytophthora infestans) | solubility in the formulating agents customary for timber preservatives [5] | % attack at an active compound concentration of 10 ppm (Phytophthora infestans) [%]
Cc1ccc(S(=O)(=O)N(C)SC(F)(Cl)Cl)cc1 [Example 1, N-fluorodichloromethylthio-N-methylamide of 4-toluenesulphonic acid] | 2.2-2.9 kg/m^3 of timber | ≤ 2 | 0.22-0.65 kg/m^3 of timber | 5 (≈ 15.7 µM) | 3.5 (≈ 11 µM) | 0.5 (≈ 1.57 µM) | 10 (≈ 31.4 µM) | 20 (≈ 62.8 µM) | 2 (≈ 6.28 µM) | 10 (≈ 31.4 µM) | 5 (≈ 15.7 µM) | 5 (≈ 15.7 µM) |  |  | 
CN(SC(F)(Cl)Cl)S(=O)(=O)c1cc(Cl)ccc1Cl [Example 28] |  |  |  |  | 35 (≈ 93.8 µM) |  | 20 (≈ 53.6 µM) |  |  | 15 (≈ 40.2 µM) |  |  |  |  | 
CN(SC(F)(Cl)Cl)S(=O)(=O)c1ccccc1 [Example 24] |  |  |  |  | 3.5 (≈ 11.5 µM) |  | 5 (≈ 16.4 µM) |  |  | 5 (≈ 16.4 µM) |  |  |  |  | 
CN(C)S(=O)(=O)N(SC(F)(Cl)Cl)c1ccccc1 [B, N,N-dimethyl-N'-phenyl-N'-(fluorodichloromethylthio)-sulphamide, reference compound] | 2.23-2.81 kg/m^3 of timber |  | 1.61-2.25 kg/m^3 of timber | 7.5 (≈ 22.5 µM) | 50 (≈ 150 µM) | 7.5 (≈ 22.5 µM) | 50 (≈ 150 µM) | 10 (≈ 30 µM) | 20 (≈ 60 µM) | 50 (≈ 150 µM) | 15 (≈ 45 µM) | 10 (≈ 30 µM) | considerably better fungicidal properties for plant protection | very sparingly soluble | 
CN(SC(F)(Cl)Cl)S(=O)(=O)c1ccc([N+](=O)[O-])cc1 [Example 14] | 2.2-3.07 kg/m^3 of timber |  | 0.26-0.79 kg/m^3 of timber | 5 (≈ 14.3 µM) | 20 (≈ 57.3 µM) | 3.5 (≈ 10 µM) | 20 (≈ 57.3 µM) | 35 (≈ 100 µM) | 10 (≈ 28.6 µM) | 20 (≈ 57.3 µM) | 3.5 (≈ 10 µM) | 5 (≈ 14.3 µM) |  |  | 
Cc1ccc(S(=O)(=O)N(C)SC(F)(Cl)Cl)cc1[N+](=O)[O-] [Example 8] |  |  |  | 5 (≈ 13.8 µM) | 15 (≈ 41.3 µM) | 0.75 (≈ 2.06 µM) | 20 (≈ 55.1 µM) | 5 (≈ 13.8 µM) | 7.5 (≈ 20.6 µM) | 20 (≈ 55.1 µM) | 5 (≈ 13.8 µM) | 5 (≈ 13.8 µM) |  |  | 
CCN(SC(F)(Cl)Cl)S(=O)(=O)c1ccccc1 [Example 2] | 1.4-2.4 kg/m^3 of timber | ≤ 2 | 0.24-0.74 kg/m^3 of timber |  | < 2 |  | 10 (≈ 31.4 µM) |  |  | 10 (≈ 31.4 µM) |  |  |  |  | 
CCCCN(SC(F)(Cl)Cl)S(=O)(=O)c1ccccc1 [Example 3] | 0.63-1.29 kg/m^3 of timber |  | 0.25-0.76 kg/m^3 of timber |  |  |  |  |  |  |  |  |  |  |  | 
Cc1ccc(N(SC(F)(Cl)Cl)S(=O)(=O)N(C)C)cc1 [N,N-dimethyl-N'-(4-tolyl)-N'-dichlorofluoromethylthio-sulphamide] |  |  |  |  |  |  |  |  |  |  |  |  | considerably better fungicidal properties for plant protection |  | 
Cc1ccc(S(=O)(=O)N(C)SC(F)(Cl)Cl)cc1C [Example 17] |  |  |  |  | 3.5 (≈ 10.5 µM) |  | 10 (≈ 30.1 µM) |  |  | 10 (≈ 30.1 µM) |  |  |  |  | 
CN(SC(F)(Cl)Cl)S(=O)(=O)c1cccc([N+](=O)[O-])c1 [Example 27] |  |  |  |  | 20 (≈ 57.3 µM) |  | 20 (≈ 57.3 µM) |  |  | 20 (≈ 57.3 µM) |  |  |  |  | 
O=C1c2ccccc2C(=O)N1SC(F)(Cl)Cl [A, N-fluorodichloromethylthiophthalimide, reference compound] |  |  |  | 50 (≈ 179 µM) | 100 (≈ 357 µM) | 2 (≈ 7.14 µM) | 200 (≈ 714 µM) | 10 (≈ 35.7 µM) | 50 (≈ 179 µM) | 35 (≈ 125 µM) | 10 (≈ 35.7 µM) | 2 (≈ 7.14 µM) |  |  | 
CN(SC(F)(Cl)Cl)S(=O)(=O)c1ccc(Cl)c(Cl)c1 [Example 25] |  |  |  |  | 7.5 (≈ 20.1 µM) |  | 20 (≈ 53.6 µM) |  |  | 10 (≈ 26.8 µM) |  |  |  |  | 
CN(C)S(=O)(=O)N(SC(F)(Cl)Cl)c1ccccc1 [drawing 12] |  |  |  |  |  |  |  |  |  |  |  |  |  |  | 19
COCCCN(SC(F)(Cl)Cl)S(=O)(=O)c1ccc(C)cc1 [Example 22] |  |  |  |  | 5 (≈ 13.3 µM) |  | 20 (≈ 53.1 µM) |  |  | 35 (≈ 93 µM) |  |  |  |  | 
CCN(SC(F)(Cl)Cl)S(=O)(=O)c1ccc(C)cc1 [Example 4] | 2.8-3.7 kg/m^3 of timber |  | 0.65-1.3 kg/m^3 of timber | 3.5 (≈ 10.5 µM) | 7.5 (≈ 22.6 µM) | 0.3 (≈ 0.903 µM) | 10 (≈ 30.1 µM) | 10 (≈ 30.1 µM) | 0.5 (≈ 1.5 µM) | 20 (≈ 60.2 µM) | 3.5 (≈ 10.5 µM) | 0.5 (≈ 1.5 µM) |  |  | 
CCN(SC(F)(Cl)Cl)S(=O)(=O)c1ccc(Cl)cc1 [Example 6] |  |  |  | 10 (≈ 28.4 µM) | 35 (≈ 99.2 µM) | 0.75 (≈ 2.13 µM) | 10 (≈ 28.4 µM) | 20 (≈ 56.7 µM) | 1 (≈ 2.84 µM) | 10 (≈ 28.4 µM) | 7.5 (≈ 21.3 µM) | 0.5 (≈ 1.42 µM) |  |  | 
Cc1ccc(N(SC(F)(Cl)Cl)S(=O)(=O)N(C)C)cc1 [drawing 13] |  |  |  |  |  |  |  |  |  |  |  |  |  |  | 14
Cc1ccc(C)c(S(=O)(=O)N(C)SC(F)(Cl)Cl)c1 [Example 19] | 1.07-1.76 kg/m^3 of timber |  | 0.24-0.72 kg/m^3 of timber | 35 (≈ 105 µM) | < 2 | 7.5 (≈ 22.6 µM) | 10 (≈ 30.1 µM) | 100 (≈ 301 µM) | 100 (≈ 301 µM) | 20 (≈ 60.2 µM) | 10 (≈ 30.1 µM) | 100 (≈ 301 µM) |  |  | 
CN(SC(F)(Cl)Cl)S(=O)(=O)c1ccc(Cl)c([N+](=O)[O-])c1 [Example 26] |  |  |  |  | 20 (≈ 52.1 µM) |  | 50 (≈ 130 µM) |  |  | 20 (≈ 52.1 µM) |  |  |  |  | 
